# “And” between values parts separate entries of the source, which are not always exact repeats. Equal values may be shown once. Inconclusive results and toxic doses are left out.
# Test system: L1210 leukemia ip in BDF1 mice, survival T/C
# Experiment: NCI In Vivo Anticancer Drug Screen. Data for tumor model L1210 Leukemia (intraperitoneal) in B6D2F1 (BDF1) mice
# Conditions: endpoint: mean survival time, higher = longer survival
# Outline: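 Transplantable tumor model; survival measured in treated vs vehicle control mice. Value = treated/control.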
# [1] = dose: 25.0 mg/kg/injection, schedule: Q01DX009 (ip), vehicle: saline
# [2] = dose: 100.0 mg/kg/injection, schedule: Q04DX003 (ip), vehicle: saline with Tween-80
# [3] = dose: 200.0 mg/kg/injection, schedule: Q04DX003 (ip), vehicle: saline with Tween-80
# [4] = dose: 400.0 mg/kg/injection, schedule: Q04DX003 (ip), vehicle: saline with Tween-80
# [5] = dose: 100.0 mg/kg/injection, schedule: Q01DX001 (ip), vehicle: carboxymethylcellulose (CMC)
# [6] = dose: 200.0 mg/kg/injection, schedule: Q01DX001 (ip), vehicle: carboxymethylcellulose (CMC)
# [7] = dose: 400.0 mg/kg/injection, schedule: Q01DX001 (ip), vehicle: carboxymethylcellulose (CMC)
# [8] = dose: 200.0 mg/kg/injection, schedule: Q01DX009 (ip), vehicle: saline with Tween-80
# [9] = dose: 100.0 mg/kg/injection, schedule: Q01DX001 (ip), vehicle: saline with Tween-80
# [10] = dose: 200.0 mg/kg/injection, schedule: Q01DX001 (ip), vehicle: saline with Tween-80
# [11] = dose: 400.0 mg/kg/injection, schedule: Q01DX001 (ip), vehicle: saline with Tween-80
# [12] = dose: 100.0 mg/kg/injection, schedule: Q01DX009 (ip), vehicle: saline
# [13] = dose: 50.0 mg/kg/injection, schedule: Q01DX Z (ip), vehicle: carboxymethylcellulose (CMC)
# [14] = dose: 100.0 mg/kg/injection, schedule: Q04DX003 (ip), vehicle: saline
# [15] = dose: 200.0 mg/kg/injection, schedule: Q01DX009 (ip), vehicle: saline
# [16] = dose: 200.0 mg/kg/injection, schedule: Q04DX003 (ip), vehicle: saline
# [17] = dose: 400.0 mg/kg/injection, schedule: Q04DX003 (ip), vehicle: saline
# [18] = dose: 100.0 mg/kg/injection, schedule: Q01DX009 (ip), vehicle: Klucel (hydroxypropylcellulose) (HPC)
# [19] = dose: 200.0 mg/kg/injection, schedule: Q01DX009 (ip), vehicle: Klucel (hydroxypropylcellulose) (HPC)
# [20] = dose: 400.0 mg/kg/injection, schedule: Q01DX009 (ip), vehicle: Klucel (hydroxypropylcellulose) (HPC)
compound,measurement,setting,value
CCC[As](=O)(O)CC(C)C,T/C,"dose: 6.25 mg/kg/injection, schedule: Q01DX001 (ip), vehicle: saline",102 % of control
same,T/C,"dose: 6.25 mg/kg/injection, schedule: Q01DX009 (ip), vehicle: saline",119 % of control
same,T/C,"dose: 12.5 mg/kg/injection, schedule: Q01DX001 (ip), vehicle: saline",98 % of control
same,T/C,"dose: 12.5 mg/kg/injection, schedule: Q01DX009 (ip), vehicle: saline",101 % of control and 108 % of control
same,T/C,"dose: 12.5 mg/kg/injection, schedule: Q04DX003 (ip), vehicle: saline",94 % of control
same,T/C,"dose: 25.0 mg/kg/injection, schedule: Q01DX001 (ip), vehicle: saline",101 % of control
same,T/C,[1],162 % of control
same,T/C,"dose: 25.0 mg/kg/injection, schedule: Q04DX002 (ip), vehicle: saline",97 % of control
same,T/C,"dose: 25.0 mg/kg/injection, schedule: Q04DX003 (ip), vehicle: saline",113 % of control
same,T/C,"dose: 50.0 mg/kg/injection, schedule: Q01DX001 (ip), vehicle: saline",104 % of control
same,T/C,"dose: 50.0 mg/kg/injection, schedule: Q04DX002 (ip), vehicle: saline",103 % of control
same,T/C,"dose: 50.0 mg/kg/injection, schedule: Q04DX003 (ip), vehicle: saline",95 % of control
COC(=O)Nc1cccc(OC(=O)NC2CCCCC2)c1,T/C,[2],100 % of control
same,T/C,[3],100 % of control
same,T/C,[4],93 % of control
N#CC(C(N)=O)n1cnc(C(N)=O)c1N (configuration not stated),T/C,[5],97 % of control
same,T/C,[6],94 % of control
same,T/C,[7],96 % of control
Cc1cc(C(=O)O)ccc1Cl,T/C,"dose: 100.0 mg/kg/injection, schedule: Q04DX003 (ip), vehicle: other",101 % of control
same,T/C,"dose: 200.0 mg/kg/injection, schedule: Q04DX003 (ip), vehicle: other",101 % of control
same,T/C,"dose: 400.0 mg/kg/injection, schedule: Q04DX003 (ip), vehicle: other",103 % of control
c1ccc(C23c4ccccc4C2c2ccccc23)nc1 (configuration not stated),T/C,"dose: 12.5 mg/kg/injection, schedule: Q01DX009 (ip), vehicle: gum acacia",104 % of control
same,T/C,"dose: 25.0 mg/kg/injection, schedule: Q01DX009 (ip), vehicle: gum acacia",100 % of control
same,T/C,"dose: 50.0 mg/kg/injection, schedule: Q01DX009 (ip), vehicle: gum acacia",100 % of control
same,T/C,"dose: 100.0 mg/kg/injection, schedule: Q04DX003 (ip), vehicle: gum acacia",97 % of control
same,T/C,"dose: 200.0 mg/kg/injection, schedule: Q04DX003 (ip), vehicle: gum acacia",97 % of control
same,T/C,"dose: 400.0 mg/kg/injection, schedule: Q04DX003 (ip), vehicle: gum acacia",104 % of control
CC(=O)OC1CCC(C)(C2CCC3(C)C(C(C)CCCC(C)C)CCC3C2CC(=O)O)C(=O)C1 (configuration not stated),T/C,[2],87 % of control
same,T/C,[8],97 % of control
same,T/C,[3],91 % of control
same,T/C,[4],91 % of control
CC(C)=CCC/C(C)=C\C=N\O,T/C,[5],101 % of control
same,T/C,[6],95 % of control
same,T/C,[7],98 % of control
OCCOc1cccc(OCCO)c1,T/C,[2],103 % of control
same,T/C,[3],104 % of control
same,T/C,[4],92 % of control
COc1ccc(C(C)(C)CC(=O)O)cc1OC,T/C,[9],92 % of control
same,T/C,[10],92 % of control
same,T/C,[11],95 % of control
CCNCc1ccc(OC)cc1,T/C,[1],101 % of control
same,T/C,"dose: 50.0 mg/kg/injection, schedule: Q01DX009 (ip), vehicle: saline",93 % of control
same,T/C,[12],100 % of control
same,T/C,[2],120 % of control
O=C1NC(=O)C2(CCCc3ccc(N(CCCl)CCCl)cc32)N1 (configuration not stated),T/C,"dose: 30.0 mg/kg/injection, schedule: Q01DX015 (ip), vehicle: carboxymethylcellulose (CMC)",102 % of control
same,T/C,"dose: 60.0 mg/kg/injection, schedule: Q01DX015 (ip), vehicle: carboxymethylcellulose (CMC)",120 % of control
same,T/C,"dose: 120.0 mg/kg/injection, schedule: Q01DX015 (ip), vehicle: carboxymethylcellulose (CMC)",123 % of control
same,T/C,"dose: 240.0 mg/kg/injection, schedule: Q01DX015 (ip), vehicle: carboxymethylcellulose (CMC)",107 % of control
Cc1nc(N)[nH]c(=O)c1CCCNc1ccc(/C=C/C2(CCl)OCCO2)cc1,T/C,[13],92 % of control
same,T/C,"dose: 200.0 mg/kg/injection, schedule: Q01DX Z (ip), vehicle: carboxymethylcellulose (CMC)",97 % of control
same,T/C,"dose: 400.0 mg/kg/injection, schedule: Q01DX Z (ip), vehicle: carboxymethylcellulose (CMC)",94 % of control
CN(C)c1ccc(/C=C/c2cc(N(C)C)nc3ccccc23)cc1,T/C,"dose: 25.0 mg/kg/injection, schedule: Q01DX015 (ip), vehicle: carboxymethylcellulose (CMC)",109 % of control
same,T/C,"dose: 50.0 mg/kg/injection, schedule: Q01DX015 (ip), vehicle: carboxymethylcellulose (CMC)",105 % of control
same,T/C,"dose: 75.0 mg/kg/injection, schedule: Q01DX015 (ip), vehicle: carboxymethylcellulose (CMC)",101 % of control
CC(C)(O)C(O)c1ccccc1 (configuration not stated),T/C,"dose: 100.0 mg/kg/injection, schedule: Q01DX001 (ip), vehicle: saline",103 % of control
same,T/C,[12],98 % of control
same,T/C,[14],97 % of control
same,T/C,"dose: 200.0 mg/kg/injection, schedule: Q01DX001 (ip), vehicle: saline",101 % of control
same,T/C,[15],93 % of control
same,T/C,[16],97 % of control
same,T/C,"dose: 400.0 mg/kg/injection, schedule: Q01DX001 (ip), vehicle: saline",95 % of control
same,T/C,[17],100 % of control
O=C(Nc1cccc(C(F)(F)F)c1)Nc1cccc2c1C(=O)c1ccccc1C2=O,T/C,"dose: 100.0 mg/kg/injection, schedule: Q01DX009 (ip), vehicle: saline with Tween-80",88 % of control
same,T/C,[8],87 % of control
NC(=O)NOCC(N)C(=O)O (configuration not stated),T/C,[14],102 % of control
same,T/C,[16],102 % of control
same,T/C,[17],97 % of control
O=C(NCCCCCCCCCNC(=O)Nc1ccc(C2=NCCN2)cc1)Nc1ccc(C2=NCCN2)cc1,T/C,"dose: 62.0 mg/kg/injection, schedule: Q01DX Z (ip), vehicle: carboxymethylcellulose (CMC)",102 % of control
same,T/C,"dose: 125.0 mg/kg/injection, schedule: Q01DX Z (ip), vehicle: carboxymethylcellulose (CMC)",100 % of control
CC1CCC(C)(C)C1=O (configuration not stated),T/C,[12],106 % of control
same,T/C,[15],96 % of control
same,T/C,"dose: 400.0 mg/kg/injection, schedule: Q01DX009 (ip), vehicle: saline",98 % of control
CC(=O)CCCSCCOC(C)=O,T/C,[18],95 % of control
same,T/C,[19],101 % of control
same,T/C,[20],101 % of control
CCCNC(=O)c1ccc(NC(=O)Nc2ccc(C3=NCCN3)cc2)cc1NC(=O)Nc1ccc(C2=NCCN2)cc1,T/C,"dose: 25.0 mg/kg/injection, schedule: Q01DX Z (ip), vehicle: carboxymethylcellulose (CMC)",113 % of control
same,T/C,[13],117 % of control
same,T/C,"dose: 100.0 mg/kg/injection, schedule: Q01DX Z (ip), vehicle: carboxymethylcellulose (CMC)",108 % of control and 113 % of control
COc1cccc(N=CC(=O)c2ccc(C)cc2)c1,T/C,"dose: 75.0 mg/kg/injection, schedule: Q04DX003 (ip), vehicle: Klucel (hydroxypropylcellulose) (HPC)",95 % of control
same,T/C,"dose: 150.0 mg/kg/injection, schedule: Q04DX003 (ip), vehicle: Klucel (hydroxypropylcellulose) (HPC)",89 % of control
CC1(C(=O)N2c3ccccc3C=CC2C#N)CC2C=CC1C2 (configuration not stated),T/C,"dose: 100.0 mg/kg/injection, schedule: Q04DX003 (ip), vehicle: Klucel (hydroxypropylcellulose) (HPC)",106 % of control
same,T/C,"dose: 200.0 mg/kg/injection, schedule: Q04DX003 (ip), vehicle: Klucel (hydroxypropylcellulose) (HPC)",110 % of control
same,T/C,"dose: 400.0 mg/kg/injection, schedule: Q04DX003 (ip), vehicle: Klucel (hydroxypropylcellulose) (HPC)",123 % of control
NC(=O)N/N=C1\CC2C=CCC12 (configuration not stated),T/C,[2],94 % of control
same,T/C,[3],92 % of control
same,T/C,[4],108 % of control
CC12CCC(O)CC1=CC=C1C2CCC2(C)C(OC(=O)c3ccccc3)CCC12 (configuration not stated),T/C,[9],91 % of control
same,T/C,[10],93 % of control
same,T/C,[11],98 % of control
CCOC(=O)Cc1cnc(C)[nH]c1=O,T/C,[18],95 % of control
same,T/C,[19],101 % of control
same,T/C,[20],96 % of control

# Source: PubChem BioAssay AID248 (DTP/NCI, 2004)
